Legend:
Assay type in all cases: in vivo
[1] = tested on: rats (F344×WF)FI; experiment: Test 1: immuno-suppressive activity, local graft-versus-host (GVH) reaction in the rat; details: Cyclosporine alone p.o. on 4 successive days
Description: The test is carried out employing rats (F344×WF)FI sensibilized by injection into the hind-foot of spleen cells taken from .female. Wistar-Furth (WF) rats. The test animals are divided into groups of 8. […] GVH reaction is determined by measurement of increase in lymphe node weight compared with untreated controls.

[2] = tested on: OFI mice; experiment: Test 2: immuno-suppressive activity, anti-body producing cell development in the mouse (PFC test); details: Cyclosporine alone p.o. on 3 successive days
Description: The test is carried out employing .female. OFI mice sensibilized by i.v. administration of ca. 1×10^8 sheep erythrocytes (SRBC). The test animals are divided into groups of 5.
The spleens are removed on day 4 and a cell suspension prepared and incubated with fresh SRBC antigen on soft agar. After addition of compliment, which, together with anti-body secreted from the sensibilized cells, dissolves SRBC in the vicinity of secreting cells, plaque development is counted and compared with results obtained employing untreated control mice.

[3] = tested on: OFA rats; experiment: Test 3: anti-inflammatory activity, adjuvant arthritis in the rat; details: Cyclosporine alone p.o./day for 14 days
Description: For this test adjuvant arthritis is induced in accordance with the method described by Pearson and Wood, "Arthr. Rheum." 2, 440 (1959). OFA .female. rats are employed as test animals. […] Administration is effected in all cases on successive days for 14 days starting on day 1 after antigen administration and inflammatory reaction is determined on day 19 after antigen administration.

## Cyclosporine
[1]
  ED50 for Cyclosporine, GVH reaction (increase in lymph node weight): 27 mg/kg
[2]
  ED50 for Cyclosporine, PFC test (plaque development): 40 mg/kg
[3]
  ED50 for Cyclosporine, adjuvant arthritis (inflammatory reaction day 19): 4.2 mg/kg
